Patent publication US9890176B2, “Mannose derivatives for treating bacterial infections” (Vertex Pharmaceuticals Incorporated, priority 2013, dated 2018)

How the values were obtained:
[1] = tested on: bacterial strain LF82 binding to the glycoprotein BSA-(Mannose)3; experiment: Bacterial Binding Assay (BBA); format: cell-based, Escherichia coli; conditions: read-out: Bacterial Binding Assay IC50
Summary of the method: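 Luciferase-tagged E. coli LF82 grown overnight at 37° C without shaking, then added at 2×10^8 bacteria/mL (10^7 per well) to wells coated with 0.5-2 μg/mL BSA-(Man)3 and blocked with 2% BSA. Compound in 0.2% BSA/D-PBS; binding 40-75 min at room temperature. Washed; bound bacteria read by luciferase luminescence; IC50.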

[2] = biological target: T1, carbohydrate recognition domain of the protein FimH (M1-T179) (Escherichia coli, UniProt P08191); experiment: Thermal Shift Assay; format: binding, E. coli; conditions: 5.6 μM protein, 56 μM ligand; DMSO control as reference; ± standard error of the mean (number of repeats)
T1 construct: domain of the protein FimH (M1-T179) with an uncleavable C-terminus 6-His tag; made in house; host or cells: E. coli (pET21b plasmid)
T1 sequence (P08191 22-179 limits assumed): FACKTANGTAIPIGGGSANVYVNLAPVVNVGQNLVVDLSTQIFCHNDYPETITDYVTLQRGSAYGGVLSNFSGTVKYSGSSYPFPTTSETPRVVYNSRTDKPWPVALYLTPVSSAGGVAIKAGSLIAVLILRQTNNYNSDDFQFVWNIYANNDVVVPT
Procedure: The carbohydrate recognition domain of the protein FimH (M1-T179) with an uncleavable C-terminus 6-His tag is cloned in a pET21b plasmid and expressed in E. coli and purified to homogeneity. The thermal stabilization of the protein upon ligand binding is measured in a 96-well format on a ViiA™ 7 (Life Technologies, Carlsbad, Calif.) RT-PCR instrument. The assay is conducted in duplicate in 20 mM Tris pH 7.4 and 150 mM NaCl at a final concentration of 5.6 μM and 56 μM for protein and ligand, respectively. An environmentally-sensitive dye (Applied Biosystems Protein Thermal Shift™ Dye (P/N 4461141)) is added to each well to a final ratio of 1:1000. Plates are spun at 1000×g for 1 minute and incubated at room temperature for 10 minutes. Thermal stability of protein with and without ligand is measured from 45° C. to 85° C. at a scan rate of 0.05° C./sec. The resulting data is analyzed using Protein Thermal Shift™ Software (version 1.1) with DMSO control used as reference.

[3] = Mouse Feces Stability Assay; format: in vitro ADME; conditions: 100 uM in mouse feces supernatant, pH 6.5, 37° C.
Procedure: The mouse feces stability assay can be used to measure the stability of FimH antagonists in an environment that mimics the gut. Fresh mouse feces samples from a number of animals (at least 4) are homogenized with 10 volumes (w/v) of 100 mM potassium phosphate buffer (pH 6.5) using a Stomacher device. The feces mixture is then centrifuged 5 min at 2000 g and the supernatant is collected for incubation. Compounds to be tested are spiked at 100 uM in the feces supernatant and incubated at 37° C. up to 6 hours. The enzymatic reaction is stopped by adding 9 volumes of acetonitrile containing 0.1% formic acid and an internal standard. The mixture is centrifuged and the supernatants are analyzed by HPLC-MS/MS to assess percentage of parent remaining relative to a control sample.

[4] = Mouse Excretion Study Following FimH Antagonist Oral Dosing; format: in vivo; conditions: 10 mg/kg orally, collection up to 72 h
Procedure: Mice are dosed 10 mg/kg orally (10 mL/kg; 0.5% methocel) with FimH antagonists and urine and feces are collected on ice up to 72 h in excretion cages. Post-collection, feces samples are diluted with 10 volumes of water and homogenized using a Stomacher device. Feces mixture and urine samples are then quenched with acetonitrile containing an internal standard, centrifuged, and the supernatants are then diluted with 1 volume of water prior to analysis by HPLC-MS/MS in SRM mode.

[5] = Human Feces Stability Assay; format: in vitro ADME; conditions: 100 uM in human feces supernatant (3 donors), pH 6.5, 37° C.
Procedure: The human feces stability assay ca be used to measure the stability of FimH antagonists in an environment that mimics the gut. Fresh human feces samples from 3 donors are homogenized with 10 volumes (w/v) of 100 mM potassium phosphate buffer (pH 6.5) using a Stomacher device. The feces mixture is then centrifuged 5 min at 2000 g and supernatant is collected for incubations. Compounds to be tested are spiked at 100 uM in feces supernatant and incubated at 37° C. up to 24 hours. The enzymatic reaction is stopped by adding 9 volumes of acetonitrile containing 0.1% formic acid and internal standard. The mixture is centrifuged and the supernatants are analysed by HPLC-MS/MS to assess percentage of parent remaining relative to a control sample.

SMILES	IC50 [1]	Delta Thermal melt [2]	other results
CNC(=O)c1cccc(-c2ccc(O[C@H]3O[C@H](CO)[C@@H](O)[C@H](O)[C@@H]3F)cc2)c1 [Example 7, 3-[4-[(2R,3S,4S,5S,6R)-3-fluoro-4,5-dihydroxy-6-(hydroxymethyl)tetrahydropyran-2-yl]oxyphenyl]-N-methyl-benzamide]	8.62 ± 1.3 µM	3.86 ± 0.09 (2) ° C.	–
CNC(=O)c1cccc(-c2ccc(O[C@H]3O[C@H](CO)[C@@H](O)[C@H](O)[C@@H]3O)c(C)c2)c1 [A]	–	–	In vitro mice feces stability - % Parent remaining at 6 h [3]: 0%; % Oral dose recovered intact in mice feces [4]: 8.4%; % Oral dose recovered intact in mice urine [4]: 0.20%; In vitro human feces stability - % Parent remaining at 24 h [5]: 35%
Cc1cc(-c2cccc([N+](=O)[O-])c2)ccc1O[C@H]1O[C@H](CO)[C@@H](O)[C@H](O)[C@@H]1F [Example 2, (2R,3S,4S,5S,6R)-5-fluoro-2-(hydroxymethyl)-6-((3-methyl-3′-nitro-[1,1′-biphenyl]-4-yl)oxy)tetrahydro-2H-pyran-3,4-diol]	1.15 ± 0.35 µM	6.01 (1) ° C.	–
Cc1cc(Br)ccc1O[C@H]1O[C@H](CO)[C@@H](O)[C@H](O)[C@@H]1F [Example 1, (2R,3S,4S,5S,6R)-6-(4-bromo-2-methyl-phenoxy)-5-fluoro-2-(hydroxymethyl)tetrahydropyran-3,4-diol]	–	3 (1) ° C.	–
OC[C@H]1O[C@H](Oc2ccc(Br)cc2C(F)(F)F)[C@@H](F)[C@@H](O)[C@@H]1O [Example 3, (2R,3S,4S,5S,6R)-6-[4-bromo-2-(trifluoromethyl)phenoxy]-5-fluoro-2-(hydroxymethyl)tetrahydropyran-3,4-diol]	–	3.2 (1) ° C.	–
CNC(=O)c1cccc(-c2ccc(O[C@H]3O[C@H](CO)[C@@H](O)[C@H](O)[C@]3(C)O)c(C)c2)c1 [Example 13, N,3′-dimethyl-4′-(((2R,3S,4S,5S,6R)-3,4,5-trihydroxy-6-(hydroxymethyl)-3-methyltetrahydro-2H-pyran-2-yl)oxy)-[1,1′-biphenyl]-3-carboxamide]	0.015 ± 0.002 µM	10.71 ± 0 (2) ° C.	–
CNC(=O)c1cccc(-c2ccc(O[C@H]3O[C@H](CO)[C@@H](O)[C@H](F)[C@@H]3O)cc2)c1 [Example 11, 4′-(((2R,3R,4S,5R,6R)-4-fluoro-3,5-dihydroxy-6-(hydroxymethyl)tetrahydro-2H-pyran-2-yl)oxy)-N-methyl-[1,1′-biphenyl]-3-carboxamide]	14 µM	2.6 (1) ° C.	–
CNC(=O)c1cccc(-c2ccc(O[C@H]3O[C@H](CO)[C@@H](O)[C@H](O)[C@@H]3F)c(OC)c2)c1 [Example 8, 3-[4-[(2R,3S,4S,5S,6R)-3-fluoro-4,5-dihydroxy-6-(hydroxymethyl)tetrahydropyran-2-yl]oxy-3-methoxy-phenyl]-N-methyl-benzamide]	5.4 ± 0.2 µM	4 (1) ° C.	–
COC(=O)c1cc(C(=O)OC)cc(-c2ccc(O[C@H]3O[C@H](CO)[C@@H](O)[C@H](O)[C@@H]3F)cc2)c1 [Example 9, Dimethyl 5-[4-[(2R,3S,4S,5S,6R)-3-fluoro-4,5-dihydroxy-6-(hydroxymethyl)tetrahydropyran-2-yl]oxyphenyl]benzene-1,3-dicarboxylate]	–	4.39 ± 0.11 (2) ° C.	–
Cc1cc(=O)oc2cc(O[C@H]3O[C@H](CO)[C@@H](O)[C@H](O)[C@@H]3F)ccc12 [Example 10, 7-[(2R,3S,4S,5S,6R)-3-fluoro-4,5-dihydroxy-6-(hydroxymethyl)tetrahydropyran-2-yl]oxy-4-methyl-chromen-2-one]	–	3.405 ± 0.105 (2) ° C.	–
CNC(=O)c1cccc(-c2ccc(O[C@H]3O[C@H](CO)[C@@H](O)[C@H](O)[C@@H]3F)c(C)c2)c1 [Example 6, 3-[4-[(2R,3S,4S,5S,6R)-3-fluoro-4,5-dihydroxy-6-(hydroxymethyl)tetrahydropyran-2-yl]oxy-3-methyl-phenyl]-N-methyl-benzamide]	0.75 ± 0.141 µM	4.905 ± 0.195 (2) ° C.	In vitro mice feces stability - % Parent remaining at 6 h [3]: 108%
CNC(=O)c1cccc(-c2ccc(O[C@H]3O[C@H](CF)[C@@H](O)[C@H](O)[C@@H]3O)cc2)c1 [Example 12, 4′-(((2R,3S,4S,5S,6S)-6-(fluoromethyl)-3,4,5-trihydroxytetrahydro-2H-pyran-2-yl)oxy)-N-methyl-[1,1′-biphenyl]-3-carboxamide]	–	0.06 ± 0.11 (2) ° C.	In vitro mice feces stability - % Parent remaining at 6 h [3]: 118%
CNC(=O)c1cccc(-c2ccc(O[C@H]3O[C@H](CO)[C@@H](O)[C@H](O)[C@@H]3F)c(C(F)(F)F)c2)c1 [Example 4, 3-[4-[(2R,3S,4S,5S,6R)-3-fluoro-4,5-dihydroxy-6-(hydroxymethyl)tetrahydropyran-2-yl]oxy-3-(trifluoromethyl)phenyl]-N-methyl-benzamide]	0.47 ± 0.032 µM	5.6 (1) ° C.	In vitro mice feces stability - % Parent remaining at 6 h [3]: 108%
COc1cc(Br)ccc1O[C@H]1O[C@H](CO)[C@@H](O)[C@H](O)[C@@H]1F [Example 5, (2R,3S,4S,5S,6R)-6-(4-bromo-2-methoxy-phenoxy)-5-fluoro-2-(hydroxymethyl)tetrahydropyran-3,4-diol]	–	1.8 (1) ° C.	–
